Assay results reported in US10676459B2, “Antifungal compounds and processes for making” (MYCOVIA PHARMACEUTICALS INC., priority 2015, dated 2020).

Tests used:
[1] = Solubility and pH of saturated solution; assay type: physicochemical
[2] = Human multiple-dose pharmacokinetic comparison; assay type: in vivo; details: for Cmax / Tmax: in vivo
Protocol: Human Pharmacokinetic Comparison of Compound 1 X-Hydrate and Compound 1 Anhydrous Form
Table 6 compares human multiple-dose pharmacokinetic (PK) parameters between dosing with Compound 1 X-hydrate and Compound 1 Anhydrous form. Compound 1 X-hydrate was dosed at 600 mg twice daily (bid) for three days followed by dosing at 300 mg once daily (qd) for 10 days. Compound 1 Anhydrous form was dosed at 300 mg qd for 14 days.

[3] = Gravimetric Vapor Sorption (GVS) isotherm and XRPD post GVS; assay type: physicochemical
Protocol: Gravimetric Vapor Sorption (GVS) isotherms were obtained using a SMS DVS Intrinsic moisture sorption analyser, controlled by DVS Intrinsic Control software v1.0.1.2 (or v 1.0.1.3). The sample temperature was maintained at 25° C. by the instrument controls. The humidity was controlled by mixing streams of dry and wet nitrogen, with a total flow rate of 200 mL/min. The relative humidity was measured by a calibrated Rotronic probe (dynamic range of 1.0-100% RH), located near the sample. The weight change, (mass relaxation) of the sample as a function of % RH was constantly monitored by the microbalance (accuracy ±0.005 mg). Typically 5-20 mg of sample was placed in a tared mesh stainless steel basket under ambient conditions. The sample was loaded and unloaded at 40% RH and 25° C. (typical room conditions). A moisture sorption isotherm was performed as outlined below (2 scans giving 1 complete cycle). The standard isotherm was performed at 25° C. at 10% RH intervals over a 0-90% RH range. Data analysis was undertaken in Microsoft Excel using DVS Analysis Suite v6.2 (or 6.1 or 6.0).
Method Parameters for SMS DVS Intrinsic Experiments
The sample was recovered after completion of the isotherm and re-analysed by XRPD.

[4] = XRPD stability post 2 weeks storage at temperature and humidity; assay type: physicochemical
Protocol: X-Ray Powder Diffraction patterns were collected on a Bruker AXS C2 GADDS diffractometer using Cu Kα radiation (40 kV, 40 mA), automated XYZ stage, laser video microscope for auto-sample positioning and a Hi Star 2-dimensional area detector. X-ray optics consists of a single Göbel multilayer mirror coupled with a pinhole collimator of 0.3 mm. A weekly performance check is carried out using a certified standard NIST 1976 Corundum (flat plate). The beam divergence, i.e. the effective size of the X-ray beam on the sample, was approximately 4 mm. A Θ-Θ continuous scan mode was employed with a sample-detector distance of 20 cm which gives an effective […] of 3.2°-29.7°. Typically the sample would be exposed to the X-ray beam for 120 seconds. The software used for data collection was GADDS for XP/2000 4.1.43 and the data were analysed and presented using Diffrac Plus EVA v13.0.0.2 or v15.0.0.0. […]
X-Ray Powder Diffraction patterns were also collected on a Bruker D8 diffractometer using Cu Kα radiation (40 kV, 40 mA), 0-20 goniometer, and divergence of V4 and receiving slits, a Ge monochromator and a Lynxeye detector. […] The software used for data collection was Diffrac Plus XRD Commander v2.6.1 and the data were analysed and presented using Diffrac Plus EVA v13.0.0.2 or v15.0.0.0. […]

[5] = 300 mg qd for 14 days vs X-hydrate 600 mg bid for three days then 300 mg qd for 10 days
[6] = 600 mg bid loading dose for 3 days, then 300 mg qd maintenance for 10 days

pH of saturated solution ([1]; listed as Anhydrous 1) | AUC0-8 h ([2]; 300 mg qd for 14 days) | area-under-the-curve (AUC) compared with Compound 1 X-hydrate [2, 5] | maximal concentration (Cmax) compared with Compound 1 X-hydrate [2, 5] | Cmax ([2]; 300 mg qd for 14 days) | Tmax ([2]; 300 mg qd for 14 days) | GVS water uptake at 90% RH ([3]; 25° C., listed as Anhydrous 1) | solubility [1] | pH of saturated solution ([1]; listed as X-hydrate 1) | AUC0-8 h [2, 6] | Cmax [2, 6] | Tmax [2, 6] | XRPD stability post 2 weeks at 25° C. & 97% RH ([4]; 25° C. & 97% RH) | XRPD stability post 2 weeks at 40° C. & 75% RH ([4]; 40° C. & 75% RH) | GVS sample hysteresis ([3]; 0-90% RH, 25° C.) | GVS water uptake at 90% RH ([3]; 25° C., listed as X-hydrate 1) | XRPD post GVS ([3]; after GVS experiment) | SMILES
pH of saturated solution = 8.7 | 35653 ngh/mL | higher | higher | 4690 ng/mL | 5 h | 0.14% w/w water uptake at | – | – | – | – | – | – | – | – | – | – | O[C@@](Cn1cnnn1)(c1ccc(F)cc1F)C(F)(F)c1ccc(-c2ccc(OCC(F)(F)F)cc2)cn1 [Compound 1 Anhydrous]
– | – | – | – | – | – | – | < 1 µg/mL | pH of saturated solution = 8.6 | 17600 ngh/mL | 2520 ng/mL | 5 h | No change in crystalline form | No change in crystalline form | 90% RH. No sample hysteresis | 0.59% w/w water uptake at | No form change after GVS | O[C@@](Cn1cnnn1)(c1ccc(F)cc1F)C(F)(F)c1ccc(-c2ccc(OCC(F)(F)F)cc2)cn1 [Compound 1 X-Hydrate]
